# In BindingDB's records for doi:10.1016/s0960-894x(99)00397-2 (Chungnam National University, 1999):
# Target: DNA topoisomerase 1 (Bos taurus)
# Assay: Compound was evaluated for the inhibition of DNA topoisomerase-1 of calf thymus
row,IC50 [µM],Compound
1,30.1,"CCCCCCC(O)c1cc(OC)c2c(c1OC)C(=O)C=CC2=O (stereo not given) [6-(1-Hydroxy-heptyl)-5,8-dimethoxy-[1,4]naphthoquinone]"
2,43.9,"CCCCCCCC(O)c1cc(OC)c2c(c1OC)C(=O)C=CC2=O (stereo not given) [6-(1-Hydroxy-octyl)-5,8-dimethoxy-[1,4]naphthoquinone]"

# Further lines, the compound ahead of its results:
row,Compound,IC50 [µM]
1,"COc1cc(C(C)O)c(OC)c2c1C(=O)C=CC2=O (stereo not given) [6-(1-Hydroxy-ethyl)-5,8-dimethoxy-[1,4]naphthoquinone]",111
2,"CCCCCC(O)c1cc(OC)c2c(c1OC)C(=O)C=CC2=O (stereo not given) [6-(1-Hydroxy-hexyl)-5,8-dimethoxy-[1,4]naphthoquinone]",39
3,"CCC(O)c1cc(OC)c2c(c1OC)C(=O)C=CC2=O (stereo not given) [6-(1-Hydroxy-propyl)-5,8-dimethoxy-[1,4]naphthoquinone]",122
